In patent publication US8623898B2, “Glycine transporter inhibiting substances” (Taisho Pharmaceutical Co., Ltd., priority 2009, dated 2014):
Where two headings read alike, the source gives them in different places.

Legend:
[1] = Membrane permeability experiment (PAMPA Evolution); format: in vitro ADME; details: artificial lipid GIT-0, pH 4.0, 5.0, 6.2 and 7.4, marker metoprolol
Experimental: In the development of pharmaceuticals, membrane permeability is an important factor to consider from the viewpoint of relationship with the bodily absorption of a medicament to be administered orally. Compounds having high membrane permeability are expected to feature satisfactory absorption by the intestinal tract (see Pharmaceutical Research (2002) Vol. 19, No. 7, 921-925.)
A membrane permeability test was conducted using PAMPA Evolution™ (pION INC.) in accordance with a modified version of the recommended protocol of pION INC. To be more specific, solutions of an assay compound (i.e., a DMSO solution of the compound as diluted by being added to system solutions that had been adjusted to prescribed pHs (4.0, 5.0, 6.2, and 7.4)) were prepared and added to the lower compartment (donor) of a sandwich plate having a lipid bilayer membrane formed of an artificial lipid (GIT-0). An acceptor sink buffer was added to the upper compartment (acceptor) and after the lapse of a prescribed period, the cumulative permeation of the compound was measured by performing UV spectroscopy on the solutions in the donor and acceptor, and the membrane permeability coefficient Pe (×10^−6 cm/sec) was calculated to assay the membrane permeability of the compound.

[2] = target: T1, human type 1 glycine transporter (GlyT1) (Homo sapiens, UniProt P48067); assay: Glycine uptake inhibition experiment ([3H] glycine uptake in T98G cells); format: cell-based; details: [3H] glycine 250 nM, read-out: IC50 (glycine uptake inhibiting activity)
T1 construct: Used in the experiment were T98G cells (glioma cells) developing a human type 1 glycine transporter (GlyT1); endogenous in cells; host or cells: T98G human glioma cells
T1 sequence (P48067 1-706): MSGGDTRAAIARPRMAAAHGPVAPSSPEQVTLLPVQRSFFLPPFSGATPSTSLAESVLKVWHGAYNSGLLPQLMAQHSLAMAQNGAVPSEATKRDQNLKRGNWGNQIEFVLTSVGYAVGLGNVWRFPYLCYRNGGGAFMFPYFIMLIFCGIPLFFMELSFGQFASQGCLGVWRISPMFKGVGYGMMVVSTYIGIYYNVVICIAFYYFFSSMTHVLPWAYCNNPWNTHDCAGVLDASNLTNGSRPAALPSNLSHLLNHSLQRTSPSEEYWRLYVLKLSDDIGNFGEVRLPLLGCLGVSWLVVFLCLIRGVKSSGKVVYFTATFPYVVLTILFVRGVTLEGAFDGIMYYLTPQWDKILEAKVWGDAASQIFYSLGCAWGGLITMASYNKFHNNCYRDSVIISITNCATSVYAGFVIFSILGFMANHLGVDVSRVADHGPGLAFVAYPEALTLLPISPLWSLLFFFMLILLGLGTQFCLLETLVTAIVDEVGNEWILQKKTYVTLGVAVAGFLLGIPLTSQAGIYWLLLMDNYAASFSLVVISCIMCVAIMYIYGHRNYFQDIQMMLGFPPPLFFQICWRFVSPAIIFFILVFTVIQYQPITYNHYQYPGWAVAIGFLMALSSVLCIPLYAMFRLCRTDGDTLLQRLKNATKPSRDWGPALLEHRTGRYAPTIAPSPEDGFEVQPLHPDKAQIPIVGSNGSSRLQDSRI
Experimental: A glycine uptake inhibition experiment was conducted in accordance with the method described in Neuron, 8, 927-935, 1992. Used in the experiment were T98G cells (glioma cells) developing a human type 1 glycine transporter (GlyT1). The T98G cells were seeded in a 96-well plate at a density of 2.0×10^4 cells per well and cultured overnight in a CO2 incubator. The test substance was first dissolved in a 100% DMSO solution and then dissolved in a 10 mM HEPES buffer solution (pH 7.4) supplemented with 150 mM sodium chloride, 1 mM calcium chloride, 5 mM potassium chloride, 1 mM magnesium chloride, 10 mM glucose, and 0.2% bovine serum albumin. After removing the cell culture medium, the test substance was subjected to a 10-min pretreatment. Thereafter, the test substance and [^3H] glycine (final concentration: 250 nM) were added to the cells and reaction was performed at room temperature for 15 minutes. After the end of the reaction, the extracellular fluid was aspirated with a manifold to remove the excess marker glycine present outside of the cells; thereafter, the cells were lysed with an aqueous solution of 0.5 M sodium hydroxide. The glycine content in the cells was determined by measuring the radioactivity in the cell lysate with a liquid scintillation counter. With the amount of glycine uptake in the presence of 10 μM ALX5407 being referred to as the nonspecific uptake, the amount of specific uptake was calculated by subtracting the amount of nonspecific uptake from the total amount of uptake in the absence of 10 μM ALX5407. In addition, glycine uptake inhibiting activity (IC50) was calculated from an inhibition curve for the concentration of the test substance ranging from 10^−9 to 10^−5 M.

IC50 [2]	IC50 ([2]; 15 min, room temperature)	SMILES	membrane permeability coefficient Pe compared with metoprolol [1]
< 100 nM	–	Cn1cnc(C(=O)N(Cc2ccc(F)c(Cl)c2)C2CCOCC2)n1 [Compound 34]	higher Pe values than the high permeability marker compound metoprolol
< 100 nM	18.1 nM	Cn1cnc(C(=O)N(Cc2ccc(F)c(-c3cccc(C(F)(F)F)c3)c2)C2CCOCC2)n1 [Compound 95]	higher Pe values than the high permeability marker compound metoprolol
< 100 nM	22.4 nM	Cn1cnc(C(=O)N(Cc2ccc(F)c(-c3ccc(OC(F)(F)F)cc3)c2)C2CCOCC2)n1 [Compound 89]	higher Pe values than the high permeability marker compound metoprolol
< 100 nM	5.4 nM	Cn1cnc(C(=O)N(Cc2ccc(F)c(-c3cccc(OC(F)(F)F)c3)c2)C2CCOCC2)n1 [Compound 87]	higher Pe values than the high permeability marker compound metoprolol
≥ 1000 nM	–	Cn1cnc(C(=O)N(Cc2cc(OC(F)(F)F)ccc2F)C2CCOCC2)n1 [Compound 63]	–
< 100 nM	29.8 nM	Cn1cnc(C(=O)N(Cc2ccc(Cl)c(OC(F)(F)F)c2)C2CCOCC2)n1 [Compound 69]	–
< 100 nM	21.4 nM	Cn1cnc(C(=O)N(Cc2ccc(F)c(-c3ccc(F)c(Cl)c3)c2)C2CCOCC2)n1 [Compound 86]	higher Pe values than the high permeability marker compound metoprolol
≥ 1000 nM	–	O=C(c1nc[nH]n1)N(Cc1ccc(F)c(C(F)(F)F)c1)C1CCOCC1 [Compound 30]	–
< 100 nM	38.2 nM	Cn1cnc(C(=O)N(Cc2cccc(I)c2)C2CCOCC2)n1 [Compound 53]	–
< 100 nM	10.6 nM	CCn1cnc(C(=O)N(Cc2cccc(OC(F)(F)F)c2)C2CCOCC2)n1 [Compound 31]	–
≥ 1000 nM	–	O=C(c1ncn(C(F)F)n1)N(Cc1cccc(OC(F)(F)F)c1)C1CCOCC1 [Compound 75]	–
≥ 1000 nM	–	O=C(c1nc[nH]n1)N(Cc1cccc(OC(F)(F)F)c1)C1CCOCC1 [Compound 19]	–

The remaining lines, values behind:

SMILES	IC50 [2]	IC50 ([2]; 15 min, room temperature)	membrane permeability coefficient Pe compared with metoprolol [1]
Cn1cnc(C(=O)N(Cc2cccc(C(F)(F)F)c2)C2CCOCC2)c1 [Compound 16]	< 100 nM	9.7 nM	higher Pe values than the high permeability marker compound metoprolol
Cn1cnc(C(=O)N(Cc2ccc(F)c(-c3ccc(Cl)cc3)c2)C2CCOCC2)n1 [Compound 60]	< 100 nM	30.6 nM	higher Pe values than the high permeability marker compound metoprolol
Cn1cnc(C(=O)N(Cc2ccc(F)c(-c3ccc(F)cc3)c2)C2CCOCC2)c1 [Compound 103]	< 100 nM	8.2 nM	higher Pe values than the high permeability marker compound metoprolol
Cn1cnc(C(=O)N(Cc2cccc(OC(F)(F)F)c2)CC2CCOCC2)c1 [Compound 2]	< 100 nM	34.5 nM	higher Pe values than the high permeability marker compound metoprolol
Cn1cnc(C(=O)N(Cc2cccc(-c3ccccc3)c2)C2CCOCC2)n1 [Compound 55]	< 100 nM	28.7 nM	higher Pe values than the high permeability marker compound metoprolol
Cn1cnc(C(=O)N(Cc2ccc(F)c(-c3cccc(CCO)c3)c2)C2CCOCC2)c1 [Compound 99]	< 100 nM	9 nM	higher Pe values than the high permeability marker compound metoprolol
Cn1cnc(C(=O)N(C2CCOCC2)C(CO)Cc2cccc(OC(F)(F)F)c2)c1 (stereo not shown) [Compound 109]	< 100 nM	31.7 nM	higher Pe values than the high permeability marker compound metoprolol
CCOc1cccc(-c2cc(CN(C(=O)c3ncn(C)n3)C3CCOCC3)ccc2F)c1 [Compound 91]	< 100 nM	28.9 nM	higher Pe values than the high permeability marker compound metoprolol
Cn1cnc(C(=O)N(Cc2ccc(F)c(-c3ccccc3)c2)C2CCOCC2)n1 [Compound 59]	< 100 nM	12.6 nM	higher Pe values than the high permeability marker compound metoprolol
Cn1cnc(C(=O)N(Cc2ccc(F)c(-c3cccc(Oc4ccccc4)c3)c2)C2CCOCC2)n1 [Compound 96]	< 100 nM	–	higher Pe values than the high permeability marker compound metoprolol
O=C(c1cn(C2CC2)cn1)N(Cc1cccc(OC(F)(F)F)c1)C1CCOCC1 [Compound 12]	≥ 1000 nM	–	higher Pe values than the high permeability marker compound metoprolol
Cn1cnc(C(=O)N(Cc2cccc(Cl)c2)C2CCOCC2)c1 [Compound 15]	< 100 nM	13.5 nM	higher Pe values than the high permeability marker compound metoprolol
Cn1cnc(C(=O)N(CCc2cccc(OC(F)(F)F)c2)C2CCOCC2)c1 [Compound 70]	< 100 nM	14.1 nM	higher Pe values than the high permeability marker compound metoprolol
Cn1cnc(C(=O)N(Cc2ccc(F)c(Br)c2)C2CCOC(C)(C)C2)c1 (stereo not shown) [Compound 110]	–	–	higher Pe values than the high permeability marker compound metoprolol
Cn1cnc(C(=O)N(Cc2ccc(F)c(-c3ccc(OC(F)(F)F)cc3)c2)C2CCOCC2)c1 [Compound 100]	< 100 nM	6 nM	higher Pe values than the high permeability marker compound metoprolol
Cn1cnc(C(=O)N(CCOc2ccc(Cl)cc2)C2CCOCC2)c1 [Compound 36]	< 100 nM	–	–
COC(=O)C(Cc1cccc(OC(F)(F)F)c1)N(C(=O)c1cn(C)cn1)C1CCOCC1 (stereo not shown) [Compound 107]	< 100 nM	30 nM	–
Cn1cnc(C(=O)N(Cc2ccc(F)c(-c3cccc(CO)c3)c2)C2CCOCC2)c1 [Compound 94]	< 100 nM	7.6 nM	–
Cn1cnc(C(=O)N(Cc2ccc(F)c(-c3cccc(CO)c3)c2)C2CCOCC2)n1 [Compound 78]	< 100 nM	–	–
O=C(c1nc[nH]n1)N(Cc1cccc(Cl)c1)C1CCOCC1 [Compound 28]	≥ 1000 nM	–	–
Cn1cnc(C(=O)N(CCC2CCOCC2)Cc2cccc(OC(F)(F)F)c2)c1 [Compound 1]	< 100 nM	19.5 nM	–
O=C(c1cn(CC(F)(F)F)cn1)N(Cc1cccc(OC(F)(F)F)c1)C1CCOCC1 [Compound 14]	≥ 1000 nM	–	–
Cc1nc(C(=O)N(Cc2cccc(OC(F)(F)F)c2)C2CCOCC2)c[nH]1 [Compound 8]	≥ 1000 nM	–	–
